One experiment relates to GM1 production in Jurkat cells. Briefly: cells. It is filed as cell-based. The following applies: Homo sapiens, Jurkat, 72 h.
On to `CC1(C)Cc2cc(-c3cncc4ccccc34)ccc2C1NC(=O)O[C@@H]1CN2CCC1CC2` (stereo partly drawn) [Example 142, (S)-quinuclidin-3-yl (5-(isoquinolin-4-yl)-2,2-dimethyl-2,3-dihydro-1H-inden-1-yl)carbamate], for which the midpoint of inhibition, the IC50, lay at 0.0205 µM.
On the same count and under the same terms, then `CC(C)Oc1ccc(-c2ccc3c(c2)CC(C)(C)C3NC(=O)O[C@@H]2CN3CCC2CC3)cc1` (stereo partly drawn) [Example 144, (S)-quinuclidin-3-yl (5-(4-isopropoxyphenyl)-2,2-dimethyl-2,3-dihydro-1H-inden-1-yl)carbamate], with 0.0062 µM; and `CC(C)Oc1ccccc1-c1ccc2c(c1)CC(C)(C)C2NC(=O)O[C@@H]1CN2CCC1CC2` (stereo partly drawn) [Example 145, (S)-quinuclidin-3-yl (5-(2-isopropoxyphenyl)-2,2-dimethyl-2,3-dihydro-1H-inden-1-yl)carbamate], with 0.023 µM.
On the same count and under the same terms, then `CC(C)(C)c1ccc(-c2ccc3c(c2)CC(C)(C)C3NC(=O)O[C@@H]2CN3CCC2CC3)cc1` (stereo partly drawn) [Example 146, (S)-quinuclidin-3-yl (5-(4-(tert-butyl)phenyl)-2,2-dimethyl-2,3-dihydro-1H-inden-1-yl)carbamate], with 0.0141 µM.
Still for that read-out and setting: the figure for `CCc1ccc(-c2ccc3c(c2)CC(C)(C)C3NC(=O)O[C@@H]2CN3CCC2CC3)cc1` (stereo partly drawn) [Example 147, (S)-quinuclidin-3-yl (5-(4-ethylphenyl)-2,2-dimethyl-2,3-dihydro-1H-inden-1-yl)carbamate] is 0.014 µM; for `CC1(C)Cc2cc(-c3ccc(N4CCOCC4)cc3)ccc2C1NC(=O)O[C@@H]1CN2CCC1CC2` (stereo partly drawn) [Example 148, (S)-quinuclidin-3-yl (2,2-dimethyl-5-(4-morpholinophenyl)-2,3-dihydro-1H-inden-1-yl)carbamate] it is 0.03 µM.
Compound `COCc1ccc(-c2ccc3c(c2)CC(C)(C)C3NC(=O)O[C@@H]2CN3CCC2CC3)cc1` (stereo partly drawn) [Example 149, (S)-quinuclidin-3-yl (5-(4-(methoxymethyl)phenyl)-2,2-dimethyl-2,3-dihydro-1H-inden-1-yl)carbamate] had a half-maximal inhibitory concentration (IC50) of 0.0276 µM.
`CC1(C)Cc2cc(-c3ccc(OCC(F)F)cc3)ccc2C1NC(=O)O[C@@H]1CN2CCC1CC2` (stereo partly drawn) [Example 150, (S)-quinuclidin-3-yl (5-(4-(2,2-difluoroethoxy)phenyl)-2,2-dimethyl-2,3-dihydro-1H-inden-1-yl)carbamate] came in with a half-maximal inhibitory concentration (IC50) of 0.0068 µM.
In the case of `Cc1cc(-c2ccc3c(c2)CC(C)(C)C3NC(=O)O[C@@H]2CN3CCC2CC3)ccc1N1CCOCC1` (stereo partly drawn) [Example 151, (S)-quinuclidin-3-yl (2,2-dimethyl-5-(3-methyl-4-morpholinophenyl)-2,3-dihydro-1H-inden-1-yl)carbamate], half-maximal inhibition (IC50) required 0.0379 µM.
`CC1(C)Cc2cc(-c3ccc(N4CCOCC4)c(F)c3)ccc2C1NC(=O)O[C@@H]1CN2CCC1CC2` (stereo partly drawn) [Example 152, (S)-quinuclidin-3-yl (5-(3-fluoro-4-morpholinophenyl)-2,2-dimethyl-2,3-dihydro-1H-inden-1-yl)carbamate] yielded an IC50 of 0.0325 µM.
The compound `CC1(C)Cc2cc(-c3ccc(N4CCOCC4)c(Cl)c3)ccc2C1NC(=O)O[C@@H]1CN2CCC1CC2` (stereo partly drawn) [Example 153, (S)-quinuclidin-3-yl (5-(3-chloro-4-morpholinophenyl)-2,2-dimethyl-2,3-dihydro-1H-inden-1-yl)carbamate] gave a 50% inhibitory concentration (IC50) of 0.0414 µM.
On the same count and under the same terms, then `CC1(C)Cc2cc(-c3ccc4c(c3)OCCCO4)ccc2C1NC(=O)O[C@@H]1CN2CCC1CC2` (stereo partly drawn) [Example 154, (S)-quinuclidin-3-yl (5-(3,4-dihydro-2H-benzo[b][1,4]dioxepin-7-yl)-2,2-dimethyl-2,3-dihydro-1H-inden-1-yl)carbamate], with 0.0274 µM; and `CC1(C)Cc2cc(-c3cccc(C(F)F)c3)ccc2C1NC(=O)O[C@@H]1CN2CCC1CC2` (stereo partly drawn) [Example 155, (S)-quinuclidin-3-yl (5-(3-(difluoromethyl)phenyl)-2,2-dimethyl-2,3-dihydro-1H-inden-1-yl)carbamate], with 0.0084 µM.
The same measure, in the same setting: the figure for `CC1(C)Cc2cc(-c3cccc4cccnc34)ccc2C1NC(=O)O[C@@H]1CN2CCC1CC2` (stereo partly drawn) [Example 156, (S)-quinuclidin-3-yl (2,2-dimethyl-5-(quinolin-8-yl)-2,3-dihydro-1H-inden-1-yl)carbamate] is 0.0467 µM; for `CC1(C)Cc2cc(-c3coc4ccccc34)ccc2C1NC(=O)O[C@@H]1CN2CCC1CC2` (stereo partly drawn) [Example 157, (S)-quinuclidin-3-yl (5-(benzofuran-3-yl)-2,2-dimethyl-2,3-dihydro-1H-inden-1-yl)carbamate] it is 0.0028 µM; for `CC1(C)Cc2cc(-c3cc4ccccc4o3)ccc2C1NC(=O)O[C@@H]1CN2CCC1CC2` (stereo partly drawn) [Example 158, (S)-quinuclidin-3-yl (5-(benzofuran-2-yl)-2,2-dimethyl-2,3-dihydro-1H-inden-1-yl)carbamate] it is 0.0171 µM.
`COc1ccc(-c2ccc3c(c2)CC(C)(C)C3NC(=O)O[C@@H]2CN3CCC2CC3)cc1` (stereo partly drawn) [Example 159, (S)-quinuclidin-3-yl (5-(4-methoxyphenyl)-2,2-dimethyl-2,3-dihydro-1H-inden-1-yl)carbamate] returned a 50% inhibitory concentration (IC50) of 0.0127 µM.
`CCOc1ccc(-c2ccc3c(c2)CC(C)(C)C3NC(=O)O[C@@H]2CN3CCC2CC3)cc1` (stereo partly drawn) [Example 160, (S)-quinuclidin-3-yl (5-(4-ethoxyphenyl)-2,2-dimethyl-2,3-dihydro-1H-inden-1-yl)carbamate] displayed a half-maximal inhibitory concentration (IC50) of 0.0227 µM.
On the same count and under the same terms, the figure for `CC(C)Cc1ccc(-c2ccc3c(c2)CC(C)(C)C3NC(=O)O[C@@H]2CN3CCC2CC3)cc1` (stereo partly drawn) [Example 161, (S)-quinuclidin-3-yl (5-(4-isobutylphenyl)-2,2-dimethyl-2,3-dihydro-1H-inden-1-yl)carbamate] is 0.0108 µM.
Same read-out and setting: the figure for `COc1c(Cl)ccc(-c2ccc3c(c2)CC(C)(C)C3NC(=O)O[C@@H]2CN3CCC2CC3)c1Cl` (stereo partly drawn) [Example 162, (S)-quinuclidin-3-yl (5-(2,4-dichloro-3-methoxyphenyl)-2,2-dimethyl-2,3-dihydro-1H-inden-1-yl)carbamate] is 0.0388 µM; for `CCCc1ccc(-c2ccc3c(c2)CC(C)(C)C3NC(=O)O[C@@H]2CN3CCC2CC3)cc1` (stereo partly drawn) [Example 163, (S)-quinuclidin-3-yl (2,2-dimethyl-5-(4-propylphenyl)-2,3-dihydro-1H-inden-1-yl)carbamate] it is 0.0122 µM.
Same read-out and setting: the figure for `CCCCc1ccc(-c2ccc3c(c2)CC(C)(C)C3NC(=O)O[C@@H]2CN3CCC2CC3)cc1` (stereo partly drawn) [Example 164, (S)-quinuclidin-3-yl (5-(4-butylphenyl)-2,2-dimethyl-2,3-dihydro-1H-inden-1-yl)carbamate] is 0.0065 µM; for `COc1cccc(-c2ccc3c(c2)CC(C)(C)C3NC(=O)O[C@@H]2CN3CCC2CC3)c1OC` (stereo partly drawn) [Example 165, (S)-quinuclidin-3-yl (5-(2,3-dimethoxyphenyl)-2,2-dimethyl-2,3-dihydro-1H-inden-1-yl)carbamate] it is 0.0156 µM.
In turn, `COc1ccc(-c2ccc3c(c2)CC(C)(C)C3NC(=O)O[C@@H]2CN3CCC2CC3)c(OC)c1` (stereo partly drawn) [Example 166, (S)-quinuclidin-3-yl (5-(2,4-dimethoxyphenyl)-2,2-dimethyl-2,3-dihydro-1H-inden-1-yl)carbamate] had an IC50 of 0.0263 µM.
The same measure, in the same setting: then `COc1ccc(OC)c(-c2ccc3c(c2)CC(C)(C)C3NC(=O)O[C@@H]2CN3CCC2CC3)c1` (stereo partly drawn) [Example 167, (S)-quinuclidin-3-yl (5-(2,5-dimethoxyphenyl)-2,2-dimethyl-2,3-dihydro-1H-inden-1-yl)carbamate], with 0.0038 µM.
On the same count and under the same terms, then `COc1cccc(OC)c1-c1ccc2c(c1)CC(C)(C)C2NC(=O)O[C@@H]1CN2CCC1CC2` (stereo partly drawn) [Example 168, (S)-quinuclidin-3-yl (5-(2,6-dimethoxyphenyl)-2,2-dimethyl-2,3-dihydro-1H-inden-1-yl)carbamate], with 0.0096 µM.
The same measure, in the same setting: then `COc1cc(OC)cc(-c2ccc3c(c2)CC(C)(C)C3NC(=O)O[C@@H]2CN3CCC2CC3)c1` (stereo partly drawn) [Example 169, (S)-quinuclidin-3-yl (5-(3,5-dimethoxyphenyl)-2,2-dimethyl-2,3-dihydro-1H-inden-1-yl)carbamate], with 0.0098 µM.
With `CCOc1ccc(-c2ccc3c(c2)CC(C)(C)C3NC(=O)O[C@@H]2CN3CCC2CC3)cc1C(F)(F)F` (stereo partly drawn) [Example 170, (S)-quinuclidin-3-yl (5-(4-ethoxy-3-(trifluoromethyl)phenyl)-2,2-dimethyl-2,3-dihydro-1H-inden-1-yl)carbamate], the 50% inhibitory concentration (IC50) is 0.013 µM.
The same measure, in the same setting: the figure for `COc1cc(F)c(-c2ccc3c(c2)CC(C)(C)C3NC(=O)O[C@@H]2CN3CCC2CC3)cc1F` (stereo partly drawn) [Example 171, (S)-quinuclidin-3-yl (5-(2,5-difluoro-4-methoxyphenyl)-2,2-dimethyl-2,3-dihydro-1H-inden-1-yl)carbamate] is 0.017 µM; for `CC(C)Oc1ccc(F)c(-c2ccc3c(c2)CC(C)(C)C3NC(=O)O[C@@H]2CN3CCC2CC3)c1` (stereo partly drawn) [Example 172, (S)-quinuclidin-3-yl (5-(2-fluoro-5-isopropoxyphenyl)-2,2-dimethyl-2,3-dihydro-1H-inden-1-yl)carbamate] it is 0.0485 µM; for `CCCOc1c(C)cc(-c2ccc3c(c2)CC(C)(C)C3NC(=O)O[C@@H]2CN3CCC2CC3)cc1C` (stereo partly drawn) [Example 173, (S)-quinuclidin-3-yl (5-(3,5-dimethyl-4-propoxyphenyl)-2,2-dimethyl-2,3-dihydro-1H-inden-1-yl)carbamate] it is 0.0348 µM.
On the same count and under the same terms, the figure for `CCOc1c(C)cc(-c2ccc3c(c2)CC(C)(C)C3NC(=O)O[C@@H]2CN3CCC2CC3)cc1C` (stereo partly drawn) [Example 174, (S)-quinuclidin-3-yl (5-(4-ethoxy-3,5-dimethylphenyl)-2,2-dimethyl-2,3-dihydro-1H-inden-1-yl)carbamate] is 0.0402 µM; for `CCc1ccccc1-c1ccc2c(c1)CC(C)(C)C2NC(=O)O[C@@H]1CN2CCC1CC2` (stereo partly drawn) [Example 175, (S)-quinuclidin-3-yl (5-(2-ethylphenyl)-2,2-dimethyl-2,3-dihydro-1H-inden-1-yl)carbamate] it is 0.0428 µM.

Still in this experiment, the particulars now being: read-out: IC50.
As to `CC1(C)Cc2cc(-c3cnc4ccccc4c3)ccc2C1NC(=O)O[C@@H]1CN2CCC1CC2` (stereo partly drawn) [Example 143, (S)-quinuclidin-3-yl (2,2-dimethyl-5-(quinolin-3-yl)-2,3-dihydro-1H-inden-1-yl)carbamate], the IC50 is 0.0252 µM.

For the origin of these results see patent US12522602B2, “Derivatives having 2,3-dihydro-1H-indene or 2,3-dihydrobenzofuran moiety or pharmaceutically acceptable salt thereof and pharmaceutical compositions comprising the same” (YUHAN CORPORATION, priority 2019, dated 2026).
